Data as given in US8367620B2, “Peptidic growth hormone secretagogues analog compounds and preparations thereof” (Centro de Ingenieria Genetica y Biotecnologia, priority 2006, dated 2013).
Where two headings read alike, the source gives them in different places. Where a SMILES comes first, the peptide text is derived from it. Bridges are numbered along the chain shown (N, C = ends). Where no end group is shown, it is not given here. [ ]: non-standard residue; d: D form. d2Nal = N[C@H](Cc1ccc2ccccc2c1)C(=O)O

Tests used:
[1] = test system: Post-larvae of Litopenaeus vanamei; assay: Growth stimulation in shrimps by dietary supplementation; type: in vivo; settings: compound at 1% in post-larvae crustacean diet
Experimental: The peptidic GHS analogs were included at 1% in a post-larvae crustacean diet. Post-larvae of Litopenaeus vanamei were fed with the aforementioned diet in parallel with a control group with 1% BSA addition. The effect was measured with an optical micrometer and weighing the animals in a 0.1 mg precision scale.

[2] = test system: lysozyme; assay: Lysozyme levels in tilapia larvae treated by immersion; type: in vivo, Oreochromis sp.; settings: immersion 100 μg/L
Experimental: (§1) Growth stimulation experiments on tilapia Oreochromis sp. larvae were performed evaluating groups of 100 larvae with 0.01 g average, using the peptidic GHS analogs, in a 100 μg/L concentration, twice a week using an immersion time of one hour.
During this experiment lysozyme levels were also monitored and an increase of this immunity marker was obtained in the treated animals as shown in table 8.

[3] = test system: Litopenaeus vanamei post-larvae; assay: Growth of shrimp post-larvae fed Artemia-bioencapsulated compounds; type: in vivo; settings: Artemia bioencapsulated (10 mh/L, one hour), fed four times a day for one month
Experimental: The peptidic GHS analogs were bioencapsulated in Artemia to be fed to Litopenaeus vanamei post-larvae. For the encapsulation the compounds were added in a 10 mh/L left for an hour, harvested and washed. The animals were fed four times a day for one month while the control group was fed with BSA encapsulated Artemia The effect was measured with an optical micrometer and weighing the animals in a 0.1 mg precision scale.

[4] = test system: tilapia Oreochromis sp. larvae; assay: Growth stimulation of tilapia larvae by immersion; type: in vivo; settings: immersion 100 μg/L, one hour twice a week, three weeks
Experimental: as §1

[5] = test system: PC12 cells; type: cell-based
Experimental: PC12 cells were stored in 75 cm^2 culture flasks on DMEM containing 5% bovine foetal serum and 10% horse serum, with 50 μg/ml gentamicin. Cells were incubated at 37° C. in 5% CO2. To induce differentiation cells were transferred at a density of 1×10^4 to polylysine covered 96 well plates in NGF supplemented DMEM media for 7 days, with medium replacement every 2-3 days. After differentiation cells were incubated with peptidic GHS analog compounds, at different concentrations for 72 h. Cell survival and proliferation was determined using the Promega non-radioactive cytotoxicity proliferation assay, Cell Titer 96, based in the conversion of 3-(4,5-dimethylthiazole-2-yl)-2,5-diphenyltetrazolium bromide (MTT) in to a spectrophotometrically detectable product. After deprivation of NGF medium is removed and 15 μl of the DMEM dissolved dye is added, after 4 hours of 37° C. incubation 100 μl of the stopping solution is added and absorbance is measured at 570 nm

[6] = test system: tilapias; assay: Growth acceleration on juvenile tilapias treated intraperitoneally; type: in vivo; settings: juvenile tilapia, ip 0.1 μg/g twice a week, three weeks
Experimental: The compounds were dissolved in a sodium phosphate (PBS) buffer solution and injected twice a week, during three weeks at 0.1 μg/g of humid fish weight (gbw). Compounds were applied individually to a group of 10 male tilapias with an average weight of 60.41±10.36 g and a control group with an average weight of 60.58±19.67 g was receiving PBS only as a control, measuring the average weight every week, all animals in the experiment were labelled with microchips (Stoelting Co. Wood Dale, USA.). for proper identification.

[7] = test system: Doxorubicin induced Dilated Cardiomyopathy; assay: Reversion of Doxorubicin induced dilated cardiomyopathy in rats, dose-response; type: in vivo, Wistar rats; settings: rats with Dx induced DCM; for mortality in the group respect to placebo or lower concentrations / total VEF recovery: 50 μg/kg; for DCM reversion two weeks after the treatment: 50 μg/kg to 500 μg/kg; for DCM reversion at 4 weeks of treatment: 100 to 500 μg/kg; for VEF recovery at lower concentrations: doses lower than 50 μg/kg
Experimental: To assess if there is any dose-response effect and reversion of DCM, Wistar rats were subjected to a treatment with 2 mg/kg of Doxorubicin (Dx) for 8 weeks, after the treatment all rats with a VEF drop higher than 40% were selected, divided in groups of n=8 and treated with different doses of compounds A221, A228 or A233 as follows: • 500 μg/kg, • 250 μg/kg, • 100 μg/kg, • 50 μg/kg, • 25 μg/kg, • 10 μg/kg • Saline Solution.
(FIG. 4, a A221, b A228 and c A233).

[8] = test system: Litopenaeus vanamei; assay: Growing of shrimp larvae by dipping in solution of the compounds; type: in vivo; settings: four dips of one hour every three days, 0.1 g/L
Experimental: (§2) Shrimp larvae were subjected two four dips, for one hour every three days with different peptidic GHS analogs at 0.1 g/L. The control group was subjected to the same frequency of dipping with 1 mg/L BSA.

[9] = test system: primary cultures of granular cerebellum cells; type: cell-based, Wistar rats
Experimental: Primary cultures of granular cerebellum cells were obtained from 7-9 days Wistar rats. After a rapid dissection, rat cerebellums were submerged in a cold solution and meningeal membranes were removed, each organ was transferred to a 2-3 ml fresh medium solution and finely sliced. Cells were dissociated using a Pasteur pipette and filtered through a nylon […] membrane (Falcon, Franklin Lakes, N.J.). The number of viable cells was determined by cell counting in a hematocytometer with tripan blue as a marker. Cells were cultured on polylysine covered 96 well plates at a density of 6250 cells in […] final volume. Cultures were kept at 37° C. in 5%. CO2 after 24 h, 10 μM of cytosine arabinofuranose (AraC; Sigma) was added to inhibit the proliferation of non-neuronal cells. The capacity of neural damage prevention was tested adding 500 μM hydrogen peroxide in different concentrations of peptidic GHS analog compounds, Cell survival was determined using the Promega non-radioactive cytotoxicity proliferation assay, Cell Titer 96 (Promega).

[10] = test system: Litopenaeus vanamei; assay: Shrimp dipping experiment in production conditions; type: in vivo
Experimental: as §2
This experiment was also performed in production conditions for compounds A221, A228 y A233, with a 20% of higher survival compared with the controls, keeping a stimulation of 110% on the weight and 30% in the size, showing on the treated animals a better homogeneity on the size distribution with only a 30% and a 8% of variation coefficient in weight and size respectively, on contras with a 77% and 30% in the non treated group.

[11] = test system: IGF-I mRNA; assay: IGF-I mRNA in liver and GH level of intraperitoneally injected tilapias; type: in vivo, tilapia; settings: liver of intraperitoneally injected tilapias
Experimental: IGF-I mRNa was determined in the liver of intraperitoneally injected tilapias monitoring also the GH level time course, showing the peptidic GHS analog compounds as able to stimulate in fish the GH levels in the bloodstream and at incrementing the IGF-I mRNA levels after the injection of the compounds as shown in table 4.

[12] = test system: Doxorubicin induced Dilated Cardiomyopathy; assay: Prevention of Doxorubicin induced myocardial failure in rats (VEF, forced swimming); type: in vivo, Wistar rats; settings: for ventricular ejection fraction (VEF) with respect to the healthy control: rats, Dx 2 mg/kg 8 weeks plus compound ip 500 μg/Kg, placebo VEF drop about 40%; for survival after forced swimming: Dx treated rats, compound ip 500 μg/Kg, 4° C. water 30 minutes, Dx-saline 45%
Experimental: To reproduce the physiopathogenic effects of a Dilated Cardiomyopathy (DCM) female Wistar rats of 160 g were treated with 2 mg/kg Doxorubicin (Dx) during 8 weeks. A group of this rats was also treated in parallel with compounds A221, A228 or A233 intraperitoneally at 500 μg/Kg during the 8 weeks of Dx treatment, another Dx treated group was also receiving saline solution as a placebo, and as a healthy control for the experiment another group of untreated Wistar rats of the same age was used. After the 8 week treatment all the rats were tested with an echocardiogram, to test the ventricular functionality and assess the ventricular ejection fraction (VEF).

[13] = test system: GH release; settings: McDowell 1995; compared to GHRP-6; cited from earlier work
[14] = differentiated PC12 cells, 72 h incubation, MTT, read-out: IC50 during the NGF deprivation induced neuronal death
[15] = 500 μM hydrogen peroxide, rat cerebellum granular cells, read-out: IC50 during the induced neuronal damage by Hydrogen Peroxide addition to a primary culture of neurons

## NCC(=O)N[C@@H](CO)C(=O)N[C@H]1CCCCNC(=O)C[C@@H](C(=O)N[C@@H](CO)C(=O)N2CCC[C@H]2C(=O)N[C@@H](CCC(=O)O)C(=O)N[C@@H](Cc2c[nH]cn2)C(=O)N[C@@H](CCC(N)=O)C(=O)O)NC(=O)[C@H](Cc2ccccc2)NC1=O [Compound A221, GSKFDSPEHQ] (H-GSKFDSPEHQ-OH; lactam 3-5; N-terminus and C-terminus assumed)
[1]
  Size Inc. (%), control group growing = 100%: 130.0%
[2]
  Lysozyme levels of the treated animals relative to the control group: 1.01
[3]
  Size Inc. (%), control group growing = 100%: 130.2%
[4]
  Weight Inc. (%), control group growing = 100%: 97.0%
[5]; 72 h
  IC50: 2020 nM
[6]
  Weight Inc. (%), control group growing = 100%: 98.0%
[7]
  mortality in the group respect to placebo or lower concentrations: somehow effective to reduce mortality
  total VEF recovery: not effective for the total VEF recovery
  DCM reversion two weeks after the treatment: partially reverts DCM
  DCM reversion at 4 weeks of treatment: DCM reversion is complete
  VEF recovery at lower concentrations: do not recovered VEF
[8]
  Size Inc. (%), control group growing = 100%: 112.0%
  Weight Inc. (%), control group growing = 100%: 120.1%
[9]
  IC50: 1800 nM
[10]
  higher survival compared with the controls: 20%
  stimulation in the size: 30%
  stimulation on the weight: 110%
[11]
  Normalized IGF-I mRNA levels to a non related synthetic peptide control group: 1.32
[12]
  ventricular ejection fraction (VEF) with respect to the healthy control: slightly modified VEF

## GKFDLSPEHQ [Compound A233, L-amino acid peptide with internal side-chain cycle, SEC; ID NO: 13]
[1]
  Size Inc. (%), control group growing = 100%: 140.1%
[2]
  Lysozyme levels of the treated animals relative to the control group: 2.68
[3]
  Size Inc. (%), control group growing = 100%: 140.0%
[4]
  Weight Inc. (%), control group growing = 100%: 155.0%
[5]; [14]
  IC50: 5000 nM
[6]
  Weight Inc. (%), control group growing = 100%: 165.0%
[7]
  mortality in the group respect to placebo or lower concentrations: somehow effective to reduce mortality
  total VEF recovery: not effective for the total VEF recovery
  DCM reversion two weeks after the treatment: partially reverts DCM
  DCM reversion at 4 weeks of treatment: DCM reversion is complete
  VEF recovery at lower concentrations: do not recovered VEF
[8]
  Size Inc. (%), control group growing = 100%: 124.9%
  Weight Inc. (%), control group growing = 100%: 143.0%
[9]; [15]
  IC50: 3560 nM
[10]
  higher survival compared with the controls: 20%
  stimulation in the size: 30%
  stimulation on the weight: 110%
[11]
  Normalized IGF-I mRNA levels to a non related synthetic peptide control group: 1.69
[12]
  survival after forced swimming: 100%
  ventricular ejection fraction (VEF) with respect to the healthy control: slightly modified VEF

## GKFGDLSPEHQ [Compound A228, L-amino acid peptide with internal side-chain cycle, SEC; ID NO: 8]
[1]
  Size Inc. (%), control group growing = 100%: 140.0%
[2]
  Lysozyme levels of the treated animals relative to the control group: 1.08
[3]
  Size Inc. (%), control group growing = 100%: 140.0%
[4]
  Weight Inc. (%), control group growing = 100%: 132.0%
[5]; [14]
  IC50: 3990 nM
[6]
  Weight Inc. (%), control group growing = 100%: 130.6%
[7]
  mortality in the group respect to placebo or lower concentrations: somehow effective to reduce mortality
  total VEF recovery: not effective for the total VEF recovery
  DCM reversion two weeks after the treatment: partially reverts DCM
  DCM reversion at 4 weeks of treatment: DCM reversion is complete
  VEF recovery at lower concentrations: do not recovered VEF
[8]
  Size Inc. (%), control group growing = 100%: 118.9%
  Weight Inc. (%), control group growing = 100%: 128.2%
[9]; [15]
  IC50: 1770 nM
[10]
  higher survival compared with the controls: 20%
  stimulation in the size: 30%
  stimulation on the weight: 110%
[11]
  Normalized IGF-I mRNA levels to a non related synthetic peptide control group: 1.18
[12]
  survival after forced swimming: 100%
  ventricular ejection fraction (VEF) with respect to the healthy control: slightly modified VEF

## [dK][d2Nal]AW[dF]EK-NH2
[13]
  fold increased activity in vitro: 10 fold
